Source: patent publication US7968558B2, “Amidine derivatives of 2-heteroaryl-quinazolines and quinolines; potent analgesics and anti-inflammatory agents” (Rottapharm S.p.A., priority 2006, dated 2011)
pIC50: −log10 of the molar value. Like-named read-outs stand apart in the source and are kept apart here.

Experiments:
[1] = system: IL-1β induced PGE2 production; assay: PGE2 production induced by IL-1β in chondrocyte cell culture; type: cell-based, rabbit; settings: Oryctolagus cuniculus, Chondrocyte, read-out: Effects on PGE2 production in rabbit Chondrocyte culture, IC50
Excerpt: (§1) Conversely, compounds of the invention are able to inhibit, at micromolar concentration, IL-1β induced PGE2 production in cellular systems. This inhibition effect on the production of the pro-inflammatory mediator PGE2, instead of to be ascribed to a direct COX-2 inhibition, as happens with Celecoxib and other COX-2 inhibitors, is in this case due to inhibition of cytokine induced COX-2 expression as proven in cellular systems.
(§2) Effectiveness in inhibition of PGE2 production induced by IL-1β in chondrocyte cell culture, as well as inhibition in IL-1β induced COX-2 expression in SW1353 human chondrosarcoma cell line, is summarized in Table 2, for representative compounds of the invention.

COX-2 expression = assay: IL-1β induced COX-2 expression in SW1353 human chondrosarcoma cell line; type: cell-based; settings: Homo sapiens, SW1353, read-out: Inhibition of COX-2 expression in SW1353 human chondrosarcoma cell line, IC50
Excerpt: as §1, §2

IL-1 production = IL-1 production in IL-1 stimulated human chondrosarcoma cell line; type: cell-based; settings: Compound concentration is 10 μM
Excerpt: (§3) The compounds of the invention have been found effective in interfering with cytokine production in several cell lines, representative examples of this effect are reported in Table 3, for two representative cytokines, in IL-1 stimulated human chondrosarcoma cell line.

IL-6 production = IL-6 production in IL-1 stimulated human chondrosarcoma cell line; type: cell-based; settings: Compound concentration is 10 μM
Excerpt: as §3

[2] = system: Zymosan-induced mechanical hyperalgesia; assay: Zymosan-induced mechanical hyperalgesia (Randall-Selitto); type: in vivo, rat; settings: oral
Protocol: (§4) The interplantar injection of Zymosan-induced mechanical hyperalgesia was used as a model of inflammatory pain (Meller, Neuropharmacology, 1994, 33, 1471-1478). In this model, typically a male Sprague-Dawley or Wistar rat (200-250 g) receives an interplantar injection of 3 mg/100 μl zymosan into one hind paw. A marked inflammation occurs in this hind paw. Drugs are administered orally for evaluation of efficacy, 30 min. before the inflammatory insult. The hyperalgesia induced by zymosan administration was evaluated using the Randall-Selitto method (Arch. Int. Pharmacodyn., 1957, 111, 409). The quantitation of the analgesic effect is achieved by an analgesimeter, which consist in applying to the inflamed paw an increasing weight (from 130-140 g up to 500 g). The difference in the mechanical pain threshold between the basal value (generally 230-250 g) and the one tolerated by the animals treated with the drug, determined 4 hours after the inflammatory challenge, is defined as mechanical hyperalgesia.
(§5) Mechanical hyperalgesia is expressed for the compounds of the invention as ED50, which is the dose of the administered compound able to increase the pain threshold by 50% in comparison with the group of control animals. The corresponding ED100, representing the dose able of reducing of 100% the pain threshold, can be calculated for those cases where there is a linear dose-response relationship. In vivo anti-inflammatory effect exerted by the compound of the invention can be assessed in the same Zymosan induced inflammation test described above, by measuring the volume of the oedema induced by the inflammatory agent. The oedema was evaluated as the increase in the volume of the Zymosan injected paw within a time of 0-2 hrs. The measurements of the variation of the oedema volume of the paw were recorded using hydroplethysmometer, which consists of two plastic cuvettes containing a surfactant liquid, the larger one being used for immersion of the paw, connected to the smaller one which contains a trans-ducer capable of recording small displacements of the volume used for the measure. The paw is immersed in the cuvettes up to the tibiotarsal joint. The volume of the liquid displaced is proportional to the extent of the inflammation. The efficacy of the compounds of the invention in preventing oedema formation is expressed as ED30, and is measured 2 hours after the inflammatory challenge, and represents the dose able of reducing of 30%, the Zymosan induced paw volume increase in comparison to control animals (animals treated with Zymosan but treated with only distilled water instead of the testing compound). The corresponding ED50, representing the dose able of reducing of 50% the zymosan induced paw volume increase, can be calculated for those cases where there is a linear dose-response relationship.
(§6) In both the experiments, for each test compound, at least three doses were used, with 10 animals per group. Compounds of the invention were tested at 10, 20 and 40 mg/Kg.

[3] = system: Zymosan induced paw volume increase; assay: Zymosan-induced paw oedema; type: in vivo, rat; settings: oral
Protocol: as §4, §5, §6

[4] = system: formalin-induced paw licking; assay: Formalin (licking) test; type: in vivo, mice; settings: Mus musculus, ip, 1 hour before formalin
Protocol: The formalin test is increasingly used as a model of injury-produced pain (FV. Abbott, Pain, 1995, 60, 91-102). The procedure used for the evaluation of the compounds of the invention was similar to that reported by literature (S. Hunskaar, Pain, 1987, 30, 103-104), and consisted of the injection of 20 μl of 1% solution of formalin dissolved in distilled water, in the plantar surface of the right hind paw of the mice. Immediately, the animals were placed individually in an observation chamber. The amount of time that the animal spent licking the injected paw, considered indicative of pain, was recorded during 30 min. following formalin injection. The initial nociceptive scores normally peaked 5 min after formalin injection (early phase) and 15-30 min. after formalin injection (late phase), representing both the neurogenic and inflammatory pain responses respectively.
Animals were treated i.p. with an aqueous solution of the tested compound (doses: 3, 10, 30 mg/Kg), 1 hour before the formalin injection. Control animals received only the vehicle.
In Table 8, the analgesic effect elicited in this test by a representative compound of Formula (I), is expressed as ED50 both for the early and late phase, and compared with the performance of the standard reference, paracetamol.

pIC50 [1]: 5.39
pIC50 (COX-2 expression): 5.34
SMILES: CC(=N)Nc1ccc2nc(-c3ccc4c(c3)OCO4)ncc2c1 [Example 1, N-[2-(1,3-benzodioxol-5-yl)quinazolin-6-yl]acetamidine]
Inhibition (%) of IL-1 production (IL-1 production): 50%
Inhibition (%) of IL-6 production (IL-6 production): 65%
ED50 ([2]; Rattus norvegicus, 30 min before zymosan, 4 hours after challenge, read-out: Analgesia ED50): 6 mg/kg
Analgesia ED100 ([2]; calculated from linear dose-response): 18 mg/kg
ED50 ([3]; Rattus norvegicus, calculated from linear dose-response, read-out: Oedema Reduction ED50): 23.1 mg/kg
Oedema Reduction ED30 ([3]; 2 hours after challenge): 12.2 mg/kg
ED50 ([4]; early phase, read-out: Analgesic effect ED50 (mg/Kg) Early phase): 19 mg/kg
ED50 ([4]; late phase, read-out: Analgesic effect ED50 (mg/Kg) Late phase): 13 mg/kg
